Data on 9 compounds can be found in PubChem BioAssay (NCI).

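Method: 48-hour compound exposure of cells in 96-well plates, five concentrations, linear interpolation of endpoints. GI50 is the concentration that inhibits growth by half. TGI: total growth inhibition.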

Common to all, as to experiment: NCI tumour cell line growth inhibition, 48 h
Assay [1] deals with DU-145 prostate.
Assay [2] deals with EKVX NSCLC.
In assay [3] the test system is HL-60(TB) leukemia.
Assay [4] concerns NCI-H226 lung.
Assay [5] has as its system NCI-H23 lung.
Assay [6] deals with OVCAR-8 ovarian.
Assay [7] relates to RXF 393 renal.
In assay [8] the test system is SK-OV-3 ovarian.
In assay [9] the test system is UACC-62 melanoma.
Assay [10] deals with UO-31 renal.

In the case of `CN[C@H]1CN(c2ccc3c(=O)c(C(=O)O)cn(-c4nccs4)c3n2)C[C@@H]1OC`, the GI50 in assay [1] was 1.28 µM; in assay [2] it was 1.97 µM; in [3], 0.292 µM; in assay [4] it was 0.632 µM; in assay [5] it was 0.34 µM; in assay [6], 0.457 µM. Moreover, the GI50 in assay [7] is 1.16 µM; in assay [8], 1.08 µM; in assay [9] it was 0.359 µM; in [10], 0.566 µM. Further, the TGI in assay [1] worked out at 5.28 µM; in assay [2], 7.17 µM; in [3] it was 2.07 µM; in assay [4], 3.24 µM; in assay [5], 2.01 µM; in assay [6], 3.73 µM. Besides, the TGI in [7] worked out at 3.63 µM; in assay [8], 5.29 µM; in assay [9] it was 1.95 µM; in assay [10], 2.93 µM.
With `CCOC(=O)Cc1c(C)c2cc(C(=O)c3ccccc3)c(O)cc2oc1=O`, the TGI in [1] was above 100 µM; in [2], 88.9 µM; in [3], 53.8 µM; in [4], above 100 µM; in assay [5] it was 46.6 µM; in assay [6], above 100 µM. Besides, the TGI in assay [7] and in [9] was above 100 µM in each case.
With `CNC(=O)c1c(C)oc2cc(Oc3ncnc4cc(OC)c(OC)cc34)ccc12`, the GI50 in [1] was above 100 µM; in assay [2] it was above 100 µM; in assay [3], above 100 µM; in assay [4], 2.47 µM; in assay [5], above 100 µM; in assay [6] it was above 100 µM. In addition, the GI50 was 0.235 µM in assay [7], above 100 µM in assay [8] and above 100 µM in assay [9]. In addition, the TGI in assay [1], in assay [2], in assay [3], in assay [4], in [5] and in assay [6] was above 100 µM in each case. For the same compound, the values for the TGI in assay [7], in assay [8] and in assay [9] were 2.63 µM, above 100 µM and above 100 µM, respectively.
As for `OC(CNc1ccnc2cc(Cl)ccc12)CNc1ccnc2cc(Cl)ccc12`, the GI50 in assay [1] was 1.96 µM; in assay [2], 2.22 µM; in [3], 1.82 µM; in assay [4] it was 2.98 µM; in [5], 2.79 µM; in [7], 1.7 µM. Also, the GI50 in assay [8] is 1.92 µM; in [9] it was 1.7 µM; in [10], 17 µM. The TGI in [1] is 3.76 µM; in assay [2], 6.04 µM; in assay [3], 3.79 µM; in assay [4], 9.3 µM; in assay [5] it was 7.77 µM; in assay [7], 3.19 µM. Further, the TGI came to 3.89 µM in [8], 3.37 µM in [9] and 38 µM in [10].
Consider `Nc1nc(/C=C\c2ccc([N+](=O)[O-])s2)nc(N2CCN(c3ccccc3)CC2)n1`, for which the GI50 in [1] is 21.9 µM; in [2], 32.2 µM; in [3], 18.8 µM; in [4], 15.2 µM; in assay [6], 22.2 µM; in assay [7], 18.6 µM. Moreover, the GI50 in [8] is 30.7 µM; in [9] it was 13.6 µM; in assay [10] it was 18.7 µM. Moreover, the TGI was 51.4 µM in [1]; above 100 µM in [2]; 54.2 µM in assay [3]; 36.4 µM in [4]; 52.7 µM in assay [6]; 37.2 µM in assay [7]. For the same compound, the TGI stood at 62.5 µM in [8], 30.8 µM in assay [9] and 43.7 µM in [10].
In the case of `CC(C)C[C@H](NC(=O)CNC(=O)c1cc(Cl)ccc1Cl)B(O)O`, the GI50 is below 0.0262 µM in [1]; below 0.0167 µM in assay [3]; 0.416 µM in [4]; 0.0282 µM in [5]; 0.0659 µM in assay [6]; below 0.0138 µM in [7]. The GI50 in assay [8] was 0.0997 µM; in assay [9] it was below 0.0175 µM; in assay [10], below 0.0131 µM. Also, the TGI in assay [1] amounted to 15.3 µM; in assay [3], 0.212 µM; in assay [4], 5.09 µM; in assay [6], 15.3 µM; in assay [7], 0.0356 µM; in assay [8], 8.26 µM. Further, the TGI in assay [9] amounted to 0.0457 µM; in [10] it was 0.0406 µM.
With `CC(C)(C)C(=O)OCOP(=O)(NCc1ccccc1)C1CCCN(O)C1=O` (stereo not drawn), the GI50 in assay [1] was 4.03 µM; in assay [2], 3.91 µM; in assay [3], 3.59 µM; in assay [4], 0.462 µM; in assay [5], 2.77 µM; in assay [6], 1.17 µM. Also, the figures for the GI50 in [7], in [9] and in assay [10] were 1.76 µM, 2.22 µM and 0.349 µM, respectively. Further, the TGI was above 100 µM in [1]; 78.8 µM in assay [2]; 13.7 µM in assay [3]; 3.43 µM in assay [4]; 13.4 µM in assay [5]; above 100 µM in assay [6]. In addition, the TGI came to 6.48 µM in assay [7], 6.49 µM in assay [9] and 2.99 µM in assay [10].
For the compound `NS(=O)(=O)OC[C@H]1C[C@@H](Nc2ccnc3cc(-c4cccc(SC(F)(F)F)c4)nn23)[C@H](O)[C@@H]1O`, the GI50 in assay [1] is 0.029 µM; in assay [2], 0.028 µM; in assay [3] it was 0.0332 µM; in assay [5], 0.0338 µM; in [6], 0.0216 µM; in [7], 0.0199 µM. In addition, the results for the GI50 in assay [8], in assay [9] and in assay [10] were 0.0271 µM, 0.0325 µM and 0.208 µM, respectively. In addition, the TGI in assay [1] was found to be 0.19 µM; in [2], 0.104 µM; in assay [3] it was 0.15 µM; in assay [5], 0.13 µM; in assay [6], 0.0682 µM; in [7] it was 0.0436 µM. The TGI is 0.0769 µM in assay [8], 0.195 µM in assay [9] and 0.369 µM in assay [10].
`O=C1NC(=C(Cl)Cl)/C(=N/S(=O)(=O)N2CCCCC2)N1`: the GI50 in assay [1] was 3.54 µM; in [3], 1.86 µM; in [4] it was 3.37 µM; in assay [5], 2.2 µM; in assay [6], 2.1 µM; in assay [7], 1.84 µM. In addition, the GI50 is 15.4 µM in assay [8], 1.61 µM in [9] and 2.87 µM in [10]. In addition, the TGI came out at 12.2 µM in assay [1]; 4.52 µM in [3]; 14.9 µM in assay [4]; 5 µM in [5]; 4.6 µM in assay [6]; 3.39 µM in assay [7]. For the same compound, the TGI in [8] was 28.8 µM; in [9], 3.04 µM; in assay [10], 12.4 µM.
